Test results: patent US20100137230A1, “NEW PYRIDIN-2-ONE COMPOUNDS” (priority 2007, published 2010)

How the values were obtained:
Type in all cases: cell-based
[1] = tested on: panel of Gram positive and Gram negative bacteria; experiment: in vitro screens against a panel of Gram positive and Gram negative bacteria
Procedure: (§1) All examples were tested against a panel of Gram positive and Gram negative bacteria. […] Typical MIC ranges […] are: S. aureus (MRSA) 0.06-2 (linezolid 1-2, ciprofloxacin 0.5-32) S. aureus (MSSA) 0.06-2 (linezolid 1-2, ciprofloxacin 0.125-1) E. faecalis 0.02-1 (linezolid 0.5-2, ciprofloxacin 0.5-32) E. faecium 0.02-1 (linezolid 1-2, ciprofloxacin 0.25-32) S. pneumoniae 0.02-1 (linezolid 0.125-1, ciprofloxacin 1-4) However, cleavage of saccharide modified compounds such as compounds from example 1 and 2 by esterases and glucosidases that occur in human plasma yields the corresponding antibiotically active compounds.

S. aureus (MRSA) = experiment: MIC against panel of bacteria: S. aureus (MRSA)
Procedure: as §1

S. aureus (MSSA) = experiment: MIC against panel of bacteria: S. aureus (MSSA)
Procedure: as §1

E. faecalis = experiment: MIC against panel of bacteria: E. faecalis
Procedure: as §1

E. faecium = experiment: MIC against panel of bacteria: E. faecium
Procedure: as §1

S. pneumoniae = experiment: MIC against panel of bacteria: S. pneumoniae
Procedure: as §1

SMILES | activity in the in vitro screens [1] | Typical MIC ranges (S. aureus (MRSA)) | Typical MIC ranges (S. aureus (MSSA)) | Typical MIC ranges (E. faecalis) | Typical MIC ranges (E. faecium) | Typical MIC ranges (S. pneumoniae)
CC(=O)NC[C@H]1CN(c2ccc(OCC3(OC(=O)[C@H]4O[C@@H](O)[C@H](O)[C@@H](O)[C@@H]4O)CCN(c4c(F)cn5c(=O)c(C(=O)O)cc(C6CC6)c5c4C)CC3)c(F)c2)C(=O)O1 [Example 1, 8-[4-{4-[(S)-5-(Acetylamino-methyl)-2-oxo-oxazolidin-3-yl]-2-fluoro-phenoxymethyl}-4-((2S,3S,4S,5R,6R)-3,4,5,6-tetrahydroxy-tetrahydro-pyran-2-carbonyloxy)-piperidin-1-yl]-1-cyclopropyl-7-fluoro-9-methyl-4-oxo-4H-quinolizine-3-carboxylic acid] | inactive | – | – | – | – | –
CC(=O)NC[C@H]1CN(c2ccc(OCC3(OC(=O)[C@H](O)[C@@H](O)[C@H](O)[C@H](O)CO)CCN(c4c(F)cn5c(=O)c(C(=O)O)cc(C6CC6)c5c4C)CC3)c(F)c2)C(=O)O1 [Example 2, 8-[4-{4-[(S)-5-(Acetylamino-methyl)-2-oxo-oxazolidin-3-yl]-2-fluoro-phenoxymethyl}-4-((2R,3S,4R,5R)-2,3,4,5,6-pentahydroxy-hexanoyloxy)-piperidin-1-yl]-1-cyclopropyl-7-fluoro-9-methyl-4-oxo-4H-quinolizine-3-carboxylic acid] | inactive | – | – | – | – | –
O=C(O)c1cn(C2CC2)c2cc(N3CCNCC3)c(F)cc2c1=O [ciprofloxacin] | – | 0.5 to 32 µg/mL | 0.125 to 1 µg/mL | 0.5 to 32 µg/mL | 0.25 to 32 µg/mL | 1 to 4 µg/mL
CC(=O)NC[C@H]1CN(c2ccc(N3CCOCC3)c(F)c2)C(=O)O1 [linezolid] | – | 1 to 2 µg/mL | – | 0.5 to 2 µg/mL | – | 125 to 1000 µg/mL
